Data published in patent US12208110B2 (priority 2020, dated 2025).

Key:
Format in all cases: cell-based
[1] = test system: RSV-Fluc (Recombinant Respiratory Syncytial virus strain A2 containing the firefly luciferase reporter); assay: microbe, parasite or virus in culture; settings: human respiratory syncytial virus, NHBE, 72 h, read-out: RSV-Fluc EC50 (nM, NHBE)
[2] = test system: SARS-CoV-2; assay: microbe, parasite or virus in culture; settings: Severe acute respiratory syndrome coronavirus 2, 48 h
[3] = MT4 cytotoxicity analysis (CellTiter-Glo); settings: human, MT4 CC50 (nM)
Protocol: Example 79: MT4 Cytotoxicity Analysis
3-fold serially diluted compound in DMSO, ranging from 2.5 uM to 10 mM, were added by acoustic transfer (Echo) in quadruplicate into black 384-well plates at 200 nl/well. After compound addition, 40 ul MT-4 cells at 80,000/ml were added to each well using a MicroFlo liquid dispenser (BioTek, Winooski, VT) and the cells were cultured for five days at 37° C. Following the incubation, cell viability was determined by adding 35 μL of CellTiter-Glo viability reagent and mixed thoroughly using ViaFlo 384 well workstation. The mixture was incubated for at least 10 minutes at 25° C., and the luminescence signal was quantified on an EnVision plate reader.

Compound	EC50 [1] [nM]	EC50 [2] [nM]	CC50 at 5 days [3] [nM]
CCCCCCCCCCCCCCCCCCOC[C@H](COc1cc(F)cc(C#N)c1)OP(=O)(O)OC[C@H]1O[C@@](C#N)(c2ccc3c(N)ncnn23)[C@H](O)[C@@H]1O [Example 39, ((2R,3S,4R,5R)-5-(4-aminopyrrolo[2,1-f][1,2,4]triazin-7-yl)-5-cyano-3,4-dihydroxytetrahydrofuran-2-yl)methyl ((R)-1-(3-cyano-5-fluorophenoxy)-3-(octadecyloxy)propan-2-yl) hydrogen phosphate]	78	190	2800
CCCCCCCCCCCCCCCCCCOC[C@H](COc1ccc(C#N)cn1)OP(=O)(O)OC[C@H]1O[C@@](C#N)(c2ccc3c(N)ncnn23)[C@H](O)[C@@H]1O [Example 41, ((2R,3S,4R,5R)-5-(4-aminopyrrolo[2,1-f][1,2,4]triazin-7-yl)-5-cyano-3,4-dihydroxytetrahydrofuran-2-yl)methyl ((R)-1-((5-cyanopyridin-2-yl)oxy)-3-(octadecyloxy)propan-2-yl) hydrogen phosphate]	63	130	1900
CCCCCCCCCCCCCCCCCCOC[C@H](COP(=O)(O)OC[C@H]1O[C@@](C#N)(c2ccc3c(N)ncnn23)[C@H](O)[C@@H]1O)Nc1ccc(C#N)cn1 [Example 42, ((2R,3S,4R,5R)-5-(4-aminopyrrolo[2,1-f][1,2,4]triazin-7-yl)-5-cyano-3,4-dihydroxytetrahydrofuran-2-yl)methyl ((R)-2-((5-cyanopyridin-2-yl)amino)-3-(octadecyloxy)propyl) hydrogen phosphate]	180	4600	550
CCCCCCCCCCCCCCCCCCOC[C@H](COP(=O)(O)OC[C@H]1O[C@@](C#N)(c2ccc3c(N)ncnn23)[C@H](O)[C@@H]1O)OCc1cncc(S(C)(=O)=O)c1 [Example 43, ((2R,3S,4R,5R)-5-(4-aminopyrrolo[2,1-f][1,2,4]triazin-7-yl)-5-cyano-3,4-dihydroxytetrahydrofuran-2-yl)methyl ((R)-2-((5-(methylsulfonyl)pyridin-3-yl)methoxy)-3-(octadecyloxy)propyl) hydrogen phosphate]	59	79	280
CCCCCCCCCCCCCCCCCC(=O)NC[C@H](COP(=O)(O)OC[C@H]1O[C@@](C#N)(c2ccc3c(N)ncnn23)[C@H](O)[C@@H]1O)OCc1cc(F)cc(C#N)c1 [Example 45, ((2R,3S,4R,5R)-5-(4-aminopyrrolo[2,1-f][1,2,4]triazin-7-yl)-5-cyano-3,4-dihydroxytetrahydrofuran-2-yl)methyl ((R)-2-((3-cyano-5-fluorobenzyl)oxy)-3-stearamidopropyl) hydrogen phosphate]	82	140	950
CCCCCCCCCCCCCCCCCCOC[C@H](COc1ccc(C#N)nn1)OP(=O)(O)OC[C@H]1O[C@@](C#N)(c2ccc3c(N)ncnn23)[C@H](O)[C@@H]1O [Example 46, ((2R,3S,4R,5R)-5-(4-aminopyrrolo[2,1-f][1,2,4]triazin-7-yl)-5-cyano-3,4-dihydroxytetrahydrofuran-2-yl)methyl ((R)-1-((6-cyanopyridazin-3-yl)oxy)-3-(octadecyloxy)propan-2-yl) hydrogen phosphate]	26	120	420
CCCCCCCCCCCCCCCCCCNC(=O)[C@H](COP(=O)(O)OC[C@H]1O[C@@](C#N)(c2ccc3c(N)ncnn23)[C@H](O)[C@@H]1O)OCc1cc(F)cc(C#N)c1 [Example 47, ((2R,3S,4R,5R)-5-(4-aminopyrrolo[2,1-f][1,2,4]triazin-7-yl)-5-cyano-3,4-dihydroxytetrahydrofuran-2-yl)methyl ((S)-2-((3-cyano-5-fluorobenzyl)oxy)-3-(octadecylamino)-3-oxopropyl) hydrogen phosphate]	32	120	420
